Test results reported in patent US20160368943A1, “SUBSTITUTED PURINE COMPOUNDS” (EPIZYME, INC., priority 2013, published 2016).

Legend:
[1] = Hepatocyte stability, rat; format: in vitro ADME, Sprague-Dawley rat
Method: Human, Beagle dog, Sprague-Dawley rat, and CD-1 mouse cryopreserved hepatocytes were obtained from XenoTech and stored at −150° C. until use. The hepatocytes were thawed and prepared according to the vendor's instructions, pooled into Krebs Henseleit buffer (KHB, pH 7.4), and kept on ice prior to initiating an experiment. […] The reaction mixture was incubated in a shaking water bath at 37° C. Aliquots of the incubation solutions were sampled at 0, 15, 30, 60, and 120 minutes. The reaction was immediately terminated by the addition of three volumes of ice-cold acetonitrile containing 0.1% formic acid and internal standards. After centrifugation at 1640×g for 10 minutes, the supernatants were transferred into HPLC vials, and the test compound was analyzed by LC-MS/MS. Positive controls, testosterone (20 μM) and 7-hydroxycoumarin (100 μM), were performed in parallel to confirm the enzyme activities of the hepatocytes used.
Experimental half-lives were transformed to the corresponding intrinsic clearance values and subsequently scaled to predicted in vivo clearance values, using the well-stirred model as previously described (Houston, Biochemical Pharmacology 47(9): 1469-1479, 1994; Obach, Drug Metabolism and Disposition 27(11): 1350-1359, 1999), with appropriate species-specific scaling factors (Barter et al., Current Drug Metabolism 8(1): 33-45, 2007).

[2] = Metabolite profiling in liver microsomes with NADPH and UDPGA, human; format: in vitro ADME; details: Compound A 10 μM, 20 min
Method: Compound A was incubated with liver microsomes of various species (mouse, rat, dog or human). […] For all liver microsomal incubations, samples were taken at 0 and 20 minutes. All samples were quenched by using acetonitrile/methanol solution and analyzed using an LC-MS/MS Q-Trap system (AB Sciex, Framingham, Mass.).
The corresponding product ion tandem mass spectra of Compound A and its metabolites were obtained by using enhanced product ion (EPI) scans during positive ion electrospray. The possible chemical structures of the metabolites were deduced based on their MS1 and MS2 spectra.

[3] = Plasma protein binding by equilibrium dialysis, rat; format: in vitro ADME; details: male, Sprague-Dawley, pH 7.4, read-out: Plasma free fraction
Method: Plasma protein binding was assessed by equilibrium dialysis, utilizing the HT-dialysis cell format with a cellulose semi permeable membrane (molecular weight cut off of 5000 Da). Plasma was warmed to 37° C. and adjusted to pH 7.4 before use. Male Sprague-Dawley rat, male Beagle dog, male CD-1 mouse and mixed sex human plasma was used for the studies. A 5 μM test compound solution was prepared in isotonic phosphate buffer and rat, dog, mouse and human plasma (final DMSO concentration of 0.5%). The plasma-containing solution was introduced to one side of the membrane, and the plasma-free on the other. Incubations were performed for 2-16 hours in duplicate in order to allow the compound to reach equilibrium. Haloperidol was included as the control compound for each species. At the end of the equilibration time the cells were emptied. Following protein precipitation, the samples were centrifuged and analyzed by LC-MS/MS. The samples from the protein containing compartment were quantified using calibration standards prepared in plasma and the protein free compartments were quantified using calibration standards prepared in dialysis buffer.

[4] = Liver microsome stability, rat; format: in vitro ADME
Method: The final incubation volume was 50 μL. Control incubations were included for each species where 0.1 M phosphate buffer pH 7.4 was added instead of NADPH (minus NADPH). Two control compounds were included for each species. […] The control (minus NADPH) was incubated for 45 minutes only. The reactions were stopped by transferring 25 μL of incubate to 50 μL methanol at the appropriate time points. The incubation plates were centrifuged at 2,500 rpm for 20 minutes at 4° C. to aid protein precipitation. Experimental half-lives were transformed to the corresponding intrinsic clearance values and subsequently scaled to predicted in vivo clearance values, using the well-stirred model as previously described (Houston, Biochemical Pharmacology 47(9): 1469-1479, 1994; Obach, Drug Metabolism and Disposition 27(11): 1350-1359, 1999), with appropriate species-specific scaling factors (Barter et al., Current Drug Metabolism 8(1): 33-45, 2007).

Plasma stability, human = format: in vitro ADME; details: pooled plasma, 37° C., read-out: Half-life in ex vivo blood plasma
Excerpt: Samples were quenched in methanol and analyzed by LC-MS/MS analysis.

For `CC(C)N(C[C@H]1O[C@@H](n2cnc3c(N)ncnc32)[C@H](O)[C@@H]1O)[C@H]1C[C@@H](CCc2nc3cc(C(C)(C)C)ccc3[nH]2)C1` [Compound A, (2R,3R,4S,5R)-2-(6-amino-9H-purin-9-yl)-5-((((1r,3S)-3-(2-(5-(tert-butyl)-1H-benzo[d]imidazol-2-yl)ethyl)cyclobutyl)(isopropyl)amino)methyl)tetrahydrofuran-3,4-diol], which “Scaled Hepatic CL from hepatocytes” value [1] is on record?
Its value is 7 mL/min/kg.

What about the “Abundance based on UV spectra” value [2] of the same molecule?
The value was 59%.

What about the fraction unbound at 5 μM [3] of the same molecule?
The fraction unbound at 5 μM was 0.272.

And the microsomal CLint at 3 μM ([4]; liver microsomes, pH 7.4, NADPH, 3 μM)?
The microsomal CLint at 3 μM was 72 µL/min/mg.

What about the “Scaled Hepatic CL from liver microsomes” value ([4]; well-stirred model) of the same molecule?
Its value is 45 mL/min/kg.

And the half-life at 1 μM (Plasma stability, human)?
Its half-life at 1 μM is over 2 h.
